Results published in ChEMBL document CHEMBL1133904, “Stereoselective synthesis and antibacterial evaluation of 4-amido-isothiazolidinone oxides” (Bioorg Med Chem Lett, 2001).
In brackets after ≈: the same amount, converted by molar mass.

Experiments:
[1] = tested on: Klebsiella pneumoniae; experiment: In vitro antibacterial activity against Klebsiella pneumoniae; range is 62.5->1000; assay type: functional
[2] = biological target: T1, Penicillin-binding protein 2 (Staphylococcus aureus, UniProt Q53729); experiment: Inhibition of Penicillin-binding protein 2 (PBP2) from Staphylococcus aureus
T1 sequence (Q53729 whole entry): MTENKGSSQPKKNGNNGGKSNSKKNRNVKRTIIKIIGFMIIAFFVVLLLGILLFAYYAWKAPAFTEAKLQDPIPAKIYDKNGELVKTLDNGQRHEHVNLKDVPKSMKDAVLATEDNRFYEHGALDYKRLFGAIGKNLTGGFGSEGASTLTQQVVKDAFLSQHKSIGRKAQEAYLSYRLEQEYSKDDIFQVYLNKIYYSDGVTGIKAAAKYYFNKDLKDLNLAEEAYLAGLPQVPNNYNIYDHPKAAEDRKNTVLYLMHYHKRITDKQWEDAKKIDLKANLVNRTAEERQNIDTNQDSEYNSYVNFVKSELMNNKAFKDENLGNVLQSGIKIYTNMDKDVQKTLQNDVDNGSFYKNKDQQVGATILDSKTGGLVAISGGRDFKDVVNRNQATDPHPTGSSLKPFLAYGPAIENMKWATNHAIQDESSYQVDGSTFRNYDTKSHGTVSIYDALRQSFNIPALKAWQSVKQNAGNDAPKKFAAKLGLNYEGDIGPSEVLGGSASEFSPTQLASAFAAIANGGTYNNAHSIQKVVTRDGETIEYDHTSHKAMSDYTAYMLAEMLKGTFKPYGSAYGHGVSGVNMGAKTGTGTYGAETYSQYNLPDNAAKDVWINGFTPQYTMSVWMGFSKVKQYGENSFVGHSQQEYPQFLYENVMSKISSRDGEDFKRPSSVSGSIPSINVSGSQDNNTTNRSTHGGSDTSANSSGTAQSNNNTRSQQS

[3] = biological target: T2, Penicillin-binding protein 3 (Staphylococcus aureus, UniProt Q5D1F0); experiment: Inhibition of Penicillin-binding protein 3 (PBP3) from Staphylococcus aureus
T2 sequence (Q5D1F0 whole entry): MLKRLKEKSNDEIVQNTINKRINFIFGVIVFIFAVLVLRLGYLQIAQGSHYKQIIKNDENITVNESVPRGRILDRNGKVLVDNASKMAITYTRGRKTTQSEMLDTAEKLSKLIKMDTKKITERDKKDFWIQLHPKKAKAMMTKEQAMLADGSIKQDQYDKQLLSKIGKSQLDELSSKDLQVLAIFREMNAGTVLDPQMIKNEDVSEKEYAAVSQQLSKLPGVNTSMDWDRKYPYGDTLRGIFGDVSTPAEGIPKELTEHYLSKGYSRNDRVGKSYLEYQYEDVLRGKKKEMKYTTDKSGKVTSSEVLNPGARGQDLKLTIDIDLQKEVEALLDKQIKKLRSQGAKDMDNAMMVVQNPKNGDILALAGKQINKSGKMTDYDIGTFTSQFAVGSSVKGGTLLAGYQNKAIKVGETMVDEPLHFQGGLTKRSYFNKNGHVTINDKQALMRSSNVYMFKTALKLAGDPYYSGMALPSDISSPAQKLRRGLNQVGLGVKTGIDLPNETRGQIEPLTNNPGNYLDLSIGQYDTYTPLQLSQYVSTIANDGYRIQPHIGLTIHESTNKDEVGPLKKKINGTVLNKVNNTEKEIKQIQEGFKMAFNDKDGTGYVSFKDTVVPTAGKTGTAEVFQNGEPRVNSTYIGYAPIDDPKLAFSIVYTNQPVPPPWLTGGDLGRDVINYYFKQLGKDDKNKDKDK

[4] = biological target: T3, Penicillin-binding protein 1 (Staphylococcus aureus, UniProt Q53725); experiment: Inhibition of Penicillin-binding protein 1 (PBP1) from Staphylococcus aureus
T3 sequence (Q53725 whole entry): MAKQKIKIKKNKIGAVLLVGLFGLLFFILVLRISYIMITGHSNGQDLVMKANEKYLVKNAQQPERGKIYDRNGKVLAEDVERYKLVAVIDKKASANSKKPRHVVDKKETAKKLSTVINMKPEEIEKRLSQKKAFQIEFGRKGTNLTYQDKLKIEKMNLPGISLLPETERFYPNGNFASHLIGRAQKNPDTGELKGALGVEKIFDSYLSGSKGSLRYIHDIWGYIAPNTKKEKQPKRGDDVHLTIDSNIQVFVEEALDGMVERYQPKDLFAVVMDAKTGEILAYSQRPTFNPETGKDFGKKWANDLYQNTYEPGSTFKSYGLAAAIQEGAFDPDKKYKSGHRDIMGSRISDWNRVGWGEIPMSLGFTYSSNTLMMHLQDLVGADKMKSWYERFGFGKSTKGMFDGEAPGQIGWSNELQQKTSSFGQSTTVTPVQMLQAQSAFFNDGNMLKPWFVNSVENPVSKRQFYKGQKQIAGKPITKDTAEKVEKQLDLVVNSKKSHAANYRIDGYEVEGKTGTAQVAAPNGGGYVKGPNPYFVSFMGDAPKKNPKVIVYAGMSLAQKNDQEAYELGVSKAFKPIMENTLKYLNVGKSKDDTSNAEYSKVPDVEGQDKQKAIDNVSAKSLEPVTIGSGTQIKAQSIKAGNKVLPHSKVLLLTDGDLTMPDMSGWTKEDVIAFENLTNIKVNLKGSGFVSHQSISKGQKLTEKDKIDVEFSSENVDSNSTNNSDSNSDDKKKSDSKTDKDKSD

[5] = tested on: Staphylococcus aureus; experiment: In vitro antibacterial activity against Staphylococcus aureus; range is 62.5->1000; assay type: functional
[6] = tested on: Streptococcus pneumoniae; experiment: In vitro antibacterial activity against Streptococcus pneumoniae; range is 62.5->1000; assay type: functional
[7] = Half life period was measured at pH 7.4 in phosphate buffer; assay type: ADME
[8] = tested on: Klebsiella pneumoniae; experiment: In vitro antibacterial activity against Klebsiella pneumoniae; range is 1.6->100; assay type: functional
[9] = tested on: Staphylococcus aureus; experiment: In vitro antibacterial activity against Staphylococcus aureus; range is 1.6->100; assay type: functional
[10] = tested on: Streptococcus pneumoniae; experiment: In vitro antibacterial activity against Streptococcus pneumoniae; range is 1.6->100; assay type: functional
[11] = tested on: Enterobacter cloacae; experiment: In vitro antibacterial activity against Enterobacter cloacae; assay type: functional
[12] = tested on: Klebsiella pneumoniae; experiment: In vitro antibacterial activity against Klebsiella pneumoniae; assay type: functional
[13] = tested on: Moraxella catarrhalis; experiment: In vitro antibacterial activity against Moraxella catarrhalis; assay type: functional
[14] = tested on: Klebsiella pneumoniae; experiment: In vitro antibacterial activity against Klebsiella pneumoniae; range is 15.6->1000; assay type: functional
[15] = tested on: Moraxella catarrhalis; experiment: In vitro antibacterial activity against Moraxella catarrhalis; range is 15.6->1000; assay type: functional
[16] = tested on: Enterobacter cloacae; experiment: In vitro antibacterial activity against Enterobacter cloacae; range is 15.6->1000; assay type: functional
[17] = tested on: Enterobacter cloacae; experiment: In vitro antibacterial activity against Enterobacter cloacae; range is 31.3->1000; assay type: functional
[18] = tested on: Klebsiella pneumoniae; experiment: In vitro antibacterial activity against Klebsiella pneumoniae; range is 31.3->1000; assay type: functional
[19] = tested on: Moraxella catarrhalis; experiment: In vitro antibacterial activity against Moraxella catarrhalis; range is 31.3->1000; assay type: functional
[20] = tested on: Enterobacter cloacae; experiment: In vitro antibacterial activity against Enterobacter cloacae; range is 125->1000; assay type: functional
[21] = tested on: Klebsiella pneumoniae; experiment: In vitro antibacterial activity against Klebsiella pneumoniae; range is 125->1000; assay type: functional
[22] = tested on: Moraxella catarrhalis; experiment: In vitro antibacterial activity against Moraxella catarrhalis; range is 125->1000; assay type: functional
[23] = tested on: Klebsiella pneumoniae; experiment: In vitro antibacterial activity against Klebsiella pneumoniae; range is 2->32; assay type: functional
[24] = tested on: Staphylococcus aureus; experiment: In vitro antibacterial activity against Staphylococcus aureus; range is 2->32; assay type: functional
[25] = tested on: Streptococcus pneumoniae; experiment: In vitro antibacterial activity against Streptococcus pneumoniae; range is 2->32; assay type: functional
[26] = tested on: Enterobacter cloacae; experiment: In vitro antibacterial activity against Enterobacter cloacae; range is 62.6->1000; assay type: functional
[27] = tested on: Klebsiella pneumoniae; experiment: In vitro antibacterial activity against Klebsiella pneumoniae; range is 62.6->1000; assay type: functional
[28] = tested on: Moraxella catarrhalis; experiment: In vitro antibacterial activity against Moraxella catarrhalis; range is 62.6->1000; assay type: functional
[29] = tested on: Enterobacter cloacae; experiment: In vitro antibacterial activity against Enterobacter cloacae; range is 16->1000; assay type: functional
[30] = tested on: Klebsiella pneumoniae; experiment: In vitro antibacterial activity against Klebsiella pneumoniae; range is 16->1000; assay type: functional
[31] = tested on: Moraxella catarrhalis; experiment: In vitro antibacterial activity against Moraxella catarrhalis; range is 16->1000; assay type: functional

| Structure (SMILES) | IC50 [2] | IC50 [3] | IC50 [4] | half-life [7] | MIC [11] | MIC [12] | MIC [13] | further results |
| --- | --- | --- | --- | --- | --- | --- | --- | --- |
| O=C(O)CN1C[C@H](NC(=O)COc2ccccc2)C1=O | > 898 µM | > 898 µM | > 898 µM | > 32 h |  |  |  | MIC [1]: 62.5 µg/mL (≈ 225 µM); MIC [5]: 62.5 µg/mL (≈ 225 µM); MIC [6]: 62.5 µg/mL (≈ 225 µM) |
| CCCCNOS(=O)(=O)N1C[C@H](NC(=O)Cc2ccccc2)C1=O | > 703 µM | > 703 µM | > 703 µM |  |  |  |  | MIC [8]: 1.6 µg/mL (≈ 4.5 µM); MIC [9]: 1.6 µg/mL (≈ 4.5 µM); MIC [10]: 1.6 µg/mL (≈ 4.5 µM) |
| CC(C)[C@@H](C(=O)O)N1C(=O)[C@@H](NC(=O)COc2ccccc2)C[S+]1[O-] (stereo partly specified) | > 679 µM | > 679 µM | > 679 µM | < 1.4 h | > 1000 µg/mL | > 1000 µg/mL | > 1000 µg/mL |  |
| CC(C)[C@H](C(=O)O)N1C(=O)[C@@H](NC(=O)COc2ccccc2)C[S+]1[O-] (stereo partly specified) | > 679 µM | > 679 µM | > 679 µM | < 3.3 h | > 1000 µg/mL | > 1000 µg/mL | > 1000 µg/mL |  |
| CC(C)[C@H](C(=O)O)N1C[C@H](NC(=O)COc2ccccc2)C1=O | > 780 µM | > 780 µM | > 780 µM | > 48 h |  |  |  | MIC [23]: 2 µg/mL (≈ 6.24 µM); MIC [24]: 2 µg/mL (≈ 6.24 µM); MIC [25]: 2 µg/mL (≈ 6.24 µM) |
| O=C(O)CN1C(=O)C(NC(=O)COc2ccccc2)CS1(=O)=O (stereo unspecified) | > 730 µM | > 730 µM | > 730 µM | 11.9 h | > 100 µg/mL | > 100 µg/mL | > 100 µg/mL |  |

Now from value to molecule, other results behind:

| IC50 [2] | IC50 [3] | IC50 [4] | half-life [7] | MIC [11] | MIC [12] | MIC [13] | Structure (SMILES) | further results |
| --- | --- | --- | --- | --- | --- | --- | --- | --- |
| > 532 µM | > 532 µM | > 532 µM | < 0.4 h | > 64 µg/mL | > 64 µg/mL | > 64 µg/mL | CCCCNOS(=O)(=O)N1C(=O)[C@@H](NC(=O)COc2ccc(Cl)cc2)CS1(=O)=O |  |
| > 552 µM | > 552 µM | > 552 µM | 5.1 h |  |  |  | O=C(CN1C(=O)C(NC(=O)Oc2ccc(Cl)cc2)CS1(=O)=O)OCc1ccccc1 (stereo unspecified) | MIC [14]: 15.6 µg/mL (≈ 34.4 µM); MIC [15]: 15.6 µg/mL (≈ 34.4 µM); MIC [16]: 15.6 µg/mL (≈ 34.4 µM) |
| > 568 µM | > 568 µM | > 568 µM | 15.8 h |  |  |  | CC(C)C(C(=O)OC(C)(C)C)N1C(=O)C(NC(=O)OCc2ccccc2)CS1(=O)=O (stereo unspecified) | MIC [17]: 31.3 µg/mL (≈ 71.1 µM); MIC [18]: 31.3 µg/mL (≈ 71.1 µM); MIC [19]: 31.3 µg/mL (≈ 71.1 µM) |
| > 664 µM | > 664 µM | > 664 µM | 15.7 h |  |  |  | CC(C(=O)O)N1C(=O)C(NC(=O)Oc2ccc(Cl)cc2)CS1(=O)=O (stereo unspecified) | MIC [20]: 125 µg/mL (≈ 332 µM); MIC [21]: 125 µg/mL (≈ 332 µM); MIC [22]: 125 µg/mL (≈ 332 µM) |
| > 495 µM | > 495 µM | > 495 µM | 5.6 h | > 64 µg/mL | > 64 µg/mL | > 64 µg/mL | CO/N=C(/C(=O)NC1CS(=O)(=O)N(CC(=O)O)C1=O)c1csc(N)n1.O=C(O)C(F)(F)F (stereo unspecified) |  |
| > 545 µM | > 545 µM | > 545 µM | < 0.5 h |  |  |  | CC(C)[C@H](C(=O)OCc1ccccc1)N1C(=O)[C@@H](NC(=O)COc2ccccc2)C[S+]1[O-] (stereo partly specified) | MIC [26]: 62.6 µg/mL (≈ 137 µM); MIC [27]: 62.6 µg/mL (≈ 137 µM); MIC [28]: 62.6 µg/mL (≈ 137 µM) |
| > 578 µM | > 578 µM | > 578 µM |  |  |  |  | CC(C(=O)OC(C)(C)C)N1C(=O)C(NC(=O)Oc2ccc(Cl)cc2)CS1(=O)=O (stereo unspecified) | MIC [17]: 31.3 µg/mL (≈ 72.3 µM); MIC [18]: 31.3 µg/mL (≈ 72.3 µM); MIC [19]: 31.3 µg/mL (≈ 72.3 µM) |
| > 650 µM | > 650 µM | > 650 µM | 22 h |  |  |  | CC(C)[C@@H](C(=O)O)N1C(=O)C(NC(=O)COc2ccccc2)CS1(=O)=O (stereo partly specified) | MIC [29]: 16 µg/mL (≈ 41.6 µM); MIC [30]: 16 µg/mL (≈ 41.6 µM); MIC [31]: 16 µg/mL (≈ 41.6 µM) |
